Experimental data: patent US20050109704A1, “Potable water delivery system with disinfection and residual discharge unit and method” (Pure H2O Bio-Technologies, Inc., priority 2003, published 2005)
Several values for one entry are separate records, joined by “and”; a condition that tells them apart may be missing. Equal values may be shown once.

What was measured:
[1] = system: waterborne microbial contamination; conditions: 3-4 ppm for 12 min at 24° C. (CT value of about 48); cited from earlier work
E. coli = assay: Iodine Disinfection of E. coli; format: cell-based, Escherichia coli; conditions: ambient (˜23° C.); for Raw counts, Average / Raw counts, Treated Rep.: undiluted/10 mL analyzed
Description: (§1) At CT values of 50, the Log 10 reductions were greater than 8.0. CT is a common measurement unit referring to concentration in parts per million multiplied by time (in minutes). CFU is known as colony forming units per milliliter. […] See references: Block, S. S., 1977. Disinfection, Sterilization and Preservation. Lea & Febiger, Philadelphia. 2nd edition.

P. aeruginosa = assay: Iodine Disinfection of P. aeruginosa; format: cell-based, Pseudomonas aeruginosa; conditions: ambient (˜23° C.); for Raw counts, Average / Raw counts, Treated Rep.: undiluted/10 mL analyzed
Description: as §1

[2] = system: Escherichia coli, Pseudomonas aeruginosa and, Enterococcus faecalis; assay: Iodine disinfection of bacteria, summary by CT value; format: cell-based; conditions: CT values of 50 (ppm x min)
Description: as §1

E. faecalis = assay: Iodine Disinfection of E. faecalis; format: cell-based, Enterococcus faecalis; conditions: ambient (˜23° C.)
Description: as §1

[3] = 5 mg/L 5 min, undiluted/10 mL analyzed
[4] = 5 mg/L 10 min, undiluted/10 mL analyzed
[5] = 15 mg/L 5 min, undiluted/10 mL analyzed

**Q.** Which “waterborne microbial contamination reduced” value [1] does the source give for `II` here?
**A.** ≥ 7 logs

**Q.** What about the Log10/mL (E. coli; 5 mg/L 5 min) of the same compound?
**A.** 1.2 Log10/mL

**Q.** And the Log10 removal (E. coli; 5 mg/L 5 min)?
**A.** 5.7 Log10

**Q.** And the “cfu/mL, Average” value (E. coli; 5 mg/L 5 min)?
**A.** 1.7 × 10^1 cfu/mL

**Q.** What about the “Raw counts, Average” value (E. coli; 5 mg/L 5 min) of the same compound?
**A.** 175

**Q.** And the “Raw counts, Treated Rep.” value (E. coli; 5 mg/L 5 min)?
**A.** 171 and 168 and 185

**Q.** And the Log10/mL (E. coli; 5 mg/L 10 min)?
**A.** <−1.0 Log10/mL

**Q.** And the Log10 removal (E. coli; 5 mg/L 10 min)?
**A.** >8.0 Log10

**Q.** What about the “cfu/mL, Average” value (E. coli; 5 mg/L 10 min) of the same compound?
**A.** <0.1 cfu/mL

**Q.** What about the “Raw counts, Average” value (E. coli; 5 mg/L 10 min) of the same compound?
**A.** 0

**Q.** What about the “Raw counts, Treated Rep.” value (E. coli; 5 mg/L 10 min) of the same compound?
**A.** 0

**Q.** What about the Log10/mL (E. coli; 5 mg/L 15 min) of the same compound?
**A.** <−1.0 Log10/mL

**Q.** And the Log10 removal (E. coli; 5 mg/L 15 min)?
**A.** >8.0 Log10

**Q.** And the “cfu/mL, Average” value (E. coli; 5 mg/L 15 min)?
**A.** <0.1 cfu/mL

**Q.** And the “Raw counts, Average” value (E. coli; 5 mg/L 15 min)?
**A.** 0

**Q.** What about the “Raw counts, Treated Rep.” value (E. coli; 5 mg/L 15 min) of the same compound?
**A.** 0

**Q.** What about the Log10/mL (E. coli; 15 mg/L 5 min) of the same compound?
**A.** <−1.0 Log10/mL

**Q.** And the Log10 removal (E. coli; 15 mg/L 5 min)?
**A.** >8.0 Log10

**Q.** And the “cfu/mL, Average” value (E. coli; 15 mg/L 5 min)?
**A.** <0.1 cfu/mL

**Q.** And the “Raw counts, Average” value (E. coli; 15 mg/L 5 min)?
**A.** 0

**Q.** What about the “Raw counts, Treated Rep.” value (E. coli; 15 mg/L 5 min) of the same compound?
**A.** 0

**Q.** What about the Log10/mL (P. aeruginosa; 5 mg/L 5 min) of the same compound?
**A.** 1.2 Log10/mL

**Q.** What about the Log10 removal (P. aeruginosa; 5 mg/L 5 min) of the same compound?
**A.** 5.7 Log10

**Q.** And the “cfu/mL, Average” value (P. aeruginosa; 5 mg/L 5 min)?
**A.** 1.7 × 10^1 cfu/mL

**Q.** What about the “Raw counts, Average” value (P. aeruginosa; 5 mg/L 5 min) of the same compound?
**A.** 175

**Q.** And the “Raw counts, Treated Rep.” value (P. aeruginosa; 5 mg/L 5 min)?
**A.** 171 and 168 and 185

**Q.** What about the Log10/mL (P. aeruginosa; 5 mg/L 10 min) of the same compound?
**A.** <−1.0 Log10/mL

**Q.** And the Log10 removal (P. aeruginosa; 5 mg/L 10 min)?
**A.** >7.9 Log10

**Q.** And the “cfu/mL, Average” value (P. aeruginosa; 5 mg/L 10 min)?
**A.** <0.1 cfu/mL

**Q.** What about the “Raw counts, Average” value (P. aeruginosa; 5 mg/L 10 min) of the same compound?
**A.** 0

**Q.** What about the “Raw counts, Treated Rep.” value (P. aeruginosa; 5 mg/L 10 min) of the same compound?
**A.** 0

**Q.** What about the Log10/mL (P. aeruginosa; 5 mg/L 15 min) of the same compound?
**A.** <−1.0 Log10/mL

**Q.** And the Log10 removal (P. aeruginosa; 5 mg/L 15 min)?
**A.** >7.9 Log10

**Q.** What about the “cfu/mL, Average” value (P. aeruginosa; 5 mg/L 15 min) of the same compound?
**A.** <0.1 cfu/mL

**Q.** And the “Raw counts, Average” value (P. aeruginosa; 5 mg/L 15 min)?
**A.** 0

**Q.** And the “Raw counts, Treated Rep.” value (P. aeruginosa; 5 mg/L 15 min)?
**A.** 0

**Q.** And the Log10/mL (P. aeruginosa; 15 mg/L 5 min)?
**A.** <−1.0 Log10/mL

**Q.** What about the Log10 removal (P. aeruginosa; 15 mg/L 5 min) of the same compound?
**A.** >7.9 Log10

**Q.** And the “cfu/mL, Average” value (P. aeruginosa; 15 mg/L 5 min)?
**A.** <0.1 cfu/mL

**Q.** What about the “Raw counts, Average” value (P. aeruginosa; 15 mg/L 5 min) of the same compound?
**A.** 0

**Q.** What about the “Raw counts, Treated Rep.” value (P. aeruginosa; 15 mg/L 5 min) of the same compound?
**A.** 0

**Q.** And the “Log 10 reductions” value [2]?
**A.** greater than 8.0 Log 10

**Q.** And the Log10/mL (E. faecalis; 5 mg/L 5 min)?
**A.** 0.6 Log10/mL

**Q.** And the Log10 removal (E. faecalis; 5 mg/L 5 min)?
**A.** 6.2 Log10

**Q.** What about the “cfu/mL, Average” value (E. faecalis; 5 mg/L 5 min) of the same compound?
**A.** 3.9 × 10^0 cfu/mL

**Q.** What about the “Raw counts, Average” value (E. faecalis; [3]) of the same compound?
**A.** 39

**Q.** And the “Raw counts, Treated Rep.” value (E. faecalis; [3])?
**A.** 49 and 38 and 31

**Q.** What about the Log10/mL (E. faecalis; 5 mg/L 10 min) of the same compound?
**A.** <−1.0 Log10/mL

**Q.** What about the Log10 removal (E. faecalis; 5 mg/L 10 min) of the same compound?
**A.** >7.8 Log10

**Q.** And the “cfu/mL, Average” value (E. faecalis; 5 mg/L 10 min)?
**A.** <0.1 cfu/mL

**Q.** What about the “Raw counts, Average” value (E. faecalis; [4]) of the same compound?
**A.** 0

**Q.** And the “Raw counts, Treated Rep.” value (E. faecalis; [4])?
**A.** 0

**Q.** And the Log10/mL (E. faecalis; 5 mg/L 15 min)?
**A.** <−1.0 Log10/mL

**Q.** And the Log10 removal (E. faecalis; 5 mg/L 15 min)?
**A.** >7.8 Log10

**Q.** What about the “Raw counts, Average” value (E. faecalis; 5 mg/L 15 min) of the same compound?
**A.** 0

**Q.** And the “Raw counts, Treated Rep.” value (E. faecalis; 5 mg/L 15 min)?
**A.** 0

**Q.** What about the “cfu/mL, Average” value (E. faecalis; 5 mg/L 15 min) of the same compound?
**A.** <0.1 cfu/mL

**Q.** What about the Log10/mL (E. faecalis; 15 mg/L 5 min) of the same compound?
**A.** <−1.0 Log10/mL

**Q.** What about the Log10 removal (E. faecalis; 15 mg/L 5 min) of the same compound?
**A.** >7.8 Log10

**Q.** And the “cfu/mL, Average” value (E. faecalis; 15 mg/L 5 min)?
**A.** <0.1 cfu/mL

**Q.** What about the “Raw counts, Average” value (E. faecalis; [5]) of the same compound?
**A.** 0

**Q.** And the “Raw counts, Treated Rep.” value (E. faecalis; [5])?
**A.** 0
